pEC50: −log10 of the molar value.
What was measured:
CYP450 2A6 = CYP450 2A6 (Homo sapiens, UniProt P11509); assay: CYP450 inhibition of substrate binding
Source text: IC50 Inhibition of substrate binding
(§3) Inhibition of binding of either 3-cyano-7-ethoxycoumarin, dibenzylfluorescein or 7-benzyoxy-4-
(§4) (trifluoromethyl) coumarin in human enzyme transfected BTI NN-5B1-4 cells or Sf9 insect cells or
(§5) inhibition of dextromethorphan substrate to CYP450 2D6 in liver microsomes.

CYP450 2B6 = CYP450 2B6 (Homo sapiens, UniProt P20813)
Source text: IC50 Inhibition of substrate binding
as §3, §4, §5

mouse vas deferens = assay: Electrically‐evoked contraction of the mouse vas deferens; type: cell-based; details: for pEC50: Mus musculus, read-out: EC50, inhibition of electrically‐evoked contraction
Procedure: Vasa deferentia were obtained from outbred MF‐1 mice and mounted vertically in a 4 mL organ bath at an initial tension of 0.5 g. The baths contained Mg^2+‐free Krebs solution (NaCl 118.2 mM, KCl 4.75 mM, KH2PO4 1.19 mM, NaHCO3 25.0 mM, glucose 11.0 mM and CaCl2·6H2O 2.54 mM), which was kept at 35–36°C and bubbled with 95% O2 and 5% CO2. […] Contractions were monitored by a computer using a data recording and analysis system as described previously (Ross et al., 2001). After placement in an organ bath, each tissue was subjected to a stimulation‐free period of 10 min and then stimulated for 10 min. Tissues were then subjected to alternate periods of stimulation (5 min) and rest (10 min) until consistent twitch amplitudes were obtained. This equilibration procedure was followed by a stimulation‐free period of 25 min. Tissues were then stimulated for 5 min after which the first agonist addition was made and stimulation continued until the end of the experiment.

ABH mice [1] = assay: Open‐field activity monitoring (hypomotility); type: in vivo, mouse; details: 1 mg·kg^−1 i.v., 30 min after administration
Procedure: Motor activity was assessed using 27.9 × 27.9 cm open field activity monitor chambers and computer software (Med Associates Inc, St. Albans, VT, USA.). This was typically performed in a darkened room. Recordings were initiated once the mouse entered the chamber and continued for 5 min. These chambers, allowing four simultaneous recordings of individual mice and were fitted with infrared beams that could detect movement in the X, Y planes. The total distance travelled (cm) was recorded. Results are expressed as mean ± SEM. These were analysed by Student's paired t‐test or a one‐way ANOVA with Bonferroni post hoc test, using SigmaStat V3/Sigmaplot V9 or V11 software (Systat Ltd Hounslow, UK. Al‐Izki et al., 2012).

ABH mice [2] = assay: Temperature testing (hypothermia); type: in vivo, mouse
Procedure: These recordings were assessed 20 min following administration of compounds. Results are expressed as mean ± SEM, and were analysed by Student's t‐test or a one‐way ANOVA with Bonferroni post hoc test using Sigma/StatV3/Sigmpaplot V9 or V11 software (Pryce et al., 2014).

[3] = system: CB1 receptor‐deficient ABH mice; assay: Spasticity in CB1 receptor‐deficient mice; type: in vivo, mouse; details: 5 mg·kg^−1 i.v., 30 min (Figure 5A)
mice = assay: Visible sedation, behaviour and tolerability in mice; details: 1 mg·kg^−1 i.v.
[4] = system: spastic ABH mice with EAE; assay: Spasticity: resistance to hindlimb flexion against a strain gauge
rat mesenteric artery [5] = system: rat mesenteric artery; set-up: method as in Hoi et al., 2007; details: ref Hoi et al., 2007; read-out: EC50, vasorelaxation of rat mesenteric arteries; cited from earlier work
[6] = Plasma, brain and spinal cord levels in ABH mice with spastic EAE; type: in vivo, mouse; details: after 5 mg·kg^−1 p.o. VSN16R, ABH mice with spastic EAE
Procedure: (§1) The stability of compounds when subjected to hepatic and plasma degradation was assessed in vitro by Inpharmatica, Cambridge, UK. Compounds (1 μM) were incubated with either pooled mouse liver microsomes (0.1 mg protein mL^−1) or pooled mouse plasma at 37°C for 0, 5, 10, 20 and 40 min before termination with acetonitrile containing warfarin as an analytical internal standard. Samples were centrifuged, and the resultant supernatant analysed for parent compound. The mass responses at baseline were taken as the 100% reference values against which the disappearance of the compound was measured. The natural log of the % remaining values was used to generate linear plots of disappearance of the compounds. Half‐life values were calculated from the slope of these plots. Hepatocyte metabolism was assessed by Cyprotex, Macclesfield, and 10 μM VSN16R was incubated with primary mouse, rat, monkey (Macaque) and human hepatocytes for 1 h, and the presence of metabolites was assessed using liquid […] mass spectroscopy. The stability of VSN16R was assessed in vivo by Inpharmatica, Cyprotex and Charles Rivers, Cambridge. Blood (plasma) samples were obtained prior to and 5 min to 24 h after drug administration of 2–5 mg·kg^−1 i.v. or 5 mg·kg^−1 p.o. VSN16R into outbred mice and rats (n = 3 per time point). In addition, plasma, brain and spinal cord samples were obtained from ABH with spastic EAE. Immediately after blood collection, the brain and spinal cord were removed and then stored at −20°C prior to assay. Tissue samples were weighed, homogenized and centrifuged, and the lysates generated. Brain lysates and plasma were assayed by LC–MS methods by Inpharmatica/Charles Rivers, Cambridge, UK. This was also performed using a Waters Xevo TQ or API4000, AB Sciex mass spectrometer using spiked samples as standards. PK Solutions Software (Summit Research Services, Montrose, CO, USA), AB Sciex Analyst software combined with Thermo Fisher Scientific Watson LIMS processing and reporting software or WinNonLin pharmacokinetic or PK solutions 2.0 software (Summit Research Services, Montrose CO, USA) were used to produce PK parameters. Data are expressed as mean ± SEM. The detection limit of VSN16R was 2 ng·mL^−1 in plasma and brain and 14 ng·mL^−1 in spinal cords. The detection limit of VSN22R was 2 ng·mL^−1 in plasma and 0.1 ng·mL^−1 for VSN44R in plasma. Pharmacokinetics in toxicological samples in rats (n = 6 per group), dogs (n = 6 per group) and humans (n = 6 per group) were performed by Charles Rivers (Edinburgh, UK).

[7] = Phase I pharmacokinetics in healthy humans; type: in vivo, human; details: male, human, plasma, oral; twice daily dosing of VSN16R; read-out: Steady‐state plasma levels
Procedure: as §1, with “cords.” for “cords. The detection limit of VSN22R was 2 ng·mL^−1 in plasma and 0.1 ng·mL^−1 for VSN44R in plasma. Pharmacokinetics in toxicological samples in rats (n = 6 per group), dogs (n = 6 per group) and humans (n = 6 per group) were performed by Charles Rivers (Edinburgh, UK).”

BKCa channel = target: T1, BKCa channel (Homo sapiens, UniProt Q12791+Q86W47); assay: Single‐channel inside‐out patch clamp, EA.hy926 cells; type: cell-based; details: 3 μM, inner surface of membrane, 40 mV, 0.3 μM free Ca^2+
T1 construct: host or cells: EA.hy926 endothelial cells
T1 sequence (Q12791 whole entry): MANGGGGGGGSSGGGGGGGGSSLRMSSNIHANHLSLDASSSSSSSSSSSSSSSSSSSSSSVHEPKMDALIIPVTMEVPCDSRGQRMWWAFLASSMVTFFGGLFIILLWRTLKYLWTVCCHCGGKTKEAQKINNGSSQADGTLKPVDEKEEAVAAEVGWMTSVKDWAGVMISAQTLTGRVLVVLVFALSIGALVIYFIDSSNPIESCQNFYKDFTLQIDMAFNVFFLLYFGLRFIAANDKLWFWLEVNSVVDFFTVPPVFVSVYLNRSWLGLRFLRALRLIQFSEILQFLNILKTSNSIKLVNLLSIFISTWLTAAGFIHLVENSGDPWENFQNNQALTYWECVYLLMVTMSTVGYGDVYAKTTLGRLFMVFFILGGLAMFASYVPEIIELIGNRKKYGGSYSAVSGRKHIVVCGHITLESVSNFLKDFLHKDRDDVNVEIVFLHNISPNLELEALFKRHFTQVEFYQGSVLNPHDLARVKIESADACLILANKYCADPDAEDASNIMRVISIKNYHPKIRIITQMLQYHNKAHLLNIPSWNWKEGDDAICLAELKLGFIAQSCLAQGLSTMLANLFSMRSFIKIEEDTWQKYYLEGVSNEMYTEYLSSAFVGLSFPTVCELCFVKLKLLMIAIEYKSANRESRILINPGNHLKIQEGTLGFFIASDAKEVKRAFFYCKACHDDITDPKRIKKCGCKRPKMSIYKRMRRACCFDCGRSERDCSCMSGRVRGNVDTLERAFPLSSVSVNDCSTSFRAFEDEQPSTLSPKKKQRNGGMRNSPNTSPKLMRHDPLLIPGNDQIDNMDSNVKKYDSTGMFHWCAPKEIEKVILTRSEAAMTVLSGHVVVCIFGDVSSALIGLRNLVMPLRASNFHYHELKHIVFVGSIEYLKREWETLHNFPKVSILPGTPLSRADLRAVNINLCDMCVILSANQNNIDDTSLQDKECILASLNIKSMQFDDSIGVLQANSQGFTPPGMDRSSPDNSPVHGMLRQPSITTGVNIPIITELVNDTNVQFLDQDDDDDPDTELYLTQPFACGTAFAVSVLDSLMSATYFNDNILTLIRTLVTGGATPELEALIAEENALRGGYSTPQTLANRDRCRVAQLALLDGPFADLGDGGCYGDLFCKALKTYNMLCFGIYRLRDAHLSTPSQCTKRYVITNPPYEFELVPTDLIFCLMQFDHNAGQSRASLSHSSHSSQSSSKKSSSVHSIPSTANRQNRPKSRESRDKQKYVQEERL
T1 sequence (Q86W47 whole entry): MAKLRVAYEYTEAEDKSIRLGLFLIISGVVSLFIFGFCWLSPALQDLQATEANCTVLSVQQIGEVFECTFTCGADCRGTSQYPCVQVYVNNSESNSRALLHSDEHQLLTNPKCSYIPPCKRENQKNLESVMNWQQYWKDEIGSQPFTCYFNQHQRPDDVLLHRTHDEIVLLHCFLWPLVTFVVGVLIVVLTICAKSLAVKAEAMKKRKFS
Procedure: The human EA.hy926 endothelial cells (ATCC, Manassas, USA) were grown in DMEM containing 10% FCS and 1% HAT (5 mM hypoxanthine, 20 μM aminopterin and 0.8 mM thymidine) and were maintained in an incubator at 37°C in 5% CO2 atmosphere (Bondarenko et al., 2013). Human HNC‐2 neuronal cells were obtained from ATCC. For experiments, cells were plated on glass coverslips. Single‐channel recordings were obtained from excised inside‐out membrane patches in symmetrical solutions using the patch‐clamp technique. All patch‐clamp experiments were performed at room temperature with the use of a water hydraulic micromanipulator (WR‐6, Narishige, Japan). […] The pipettes were filled with 140 mM KCl, 10 mM HEPES, 1 mM MgCl2, 5 mM EGTA and […] CaCl2 buffered to pH 7.2 by adding KOH. Cells were super‐perfused with a bath solution containing 140 mM NaCl, 5 mM KCl, 1.2 mM MgCl2, 10 mM HEPES, 10 mM glucose and 2.4 mM CaCl2. Following gigaseal formation, bath solution was switched to the following: 140 mM KCl, 10 mM HEPES, 1 mM MgCl2, 5 mM EGTA and a designated free Ca^2+ concentration, which was adjusted by adding different amounts of CaCl2 buffered to pH 7.2. (Bondarenko et al., 2011; Bondarenko et al., 2013). Single‐channel activity was expressed as NPo, where N represents the number of functional ion channels in the membrane patch and Po represents the open channel probability determined from idealized traces (Bondarenko et al., 2011). NPo was obtained from ≥20 s of continuous recording under each experimental condition. The effect of VSN16R was estimated after 3 min of continuous exposure to VSN16R‐containing solution. Data were analysed by ANOVA, and statistical significance was evaluated using Scheffés post hoc test of the Prism 5 software for Windows (GraphPad Software).

[8] = Stability in pooled mouse plasma; type: in vitro ADME; details: 37°C, upper limit 100 min, read-out: t ½ in plasma
Procedure: (§2) The stability of compounds when subjected to hepatic and plasma degradation was assessed in vitro by Inpharmatica, Cambridge, UK. Compounds (1 μM) were incubated with either pooled mouse liver microsomes (0.1 mg protein mL^−1) or pooled mouse plasma at 37°C for 0, 5, 10, 20 and 40 min before termination with acetonitrile containing warfarin as an analytical internal standard. Samples were centrifuged, and the resultant supernatant analysed for parent compound. The mass responses at baseline were taken as the 100% reference values against which the disappearance of the compound was measured. The natural log of the % remaining values was used to generate linear plots of disappearance of the compounds. Half‐life values were calculated from the slope of these plots. Hepatocyte metabolism was assessed by Cyprotex, Macclesfield, and 10 μM VSN16R was incubated with primary mouse, rat, monkey (Macaque) and human hepatocytes for 1 h, and the presence of metabolites was assessed using liquid […] mass spectroscopy. The stability of VSN16R was assessed in vivo by Inpharmatica, Cyprotex and Charles Rivers, Cambridge. Blood (plasma) samples were obtained prior to and 5 min to 24 h after drug administration of 2–5 mg·kg^−1 i.v. or 5 mg·kg^−1 p.o. VSN16R into outbred mice and rats (n = 3 per time point). […] Data are expressed as mean ± SEM. […]

rat mesenteric artery [9] = assay: Methoxamine‐evoked contraction of rat mesenteric artery; type: cell-based; details: 200 µM
Procedure: Vessels were equilibrated and set to a basal tension of 2 to 2.5 mN. The integrity of the endothelium was assessed by pre‐contracting the vessel with 10 μM methoxamine (an α1‐adrenoceptor agonist), followed by relaxation with 10 μM carbachol (a muscarinic acetylcholine receptor agonist); vessels showing relaxations of greater than 90% were designated as endothelium‐intact. When the endothelium was not required, it was removed by rubbing the intima with a human hair; carbachol‐induced relaxation of less than 10% indicated successful removal. After the test for endothelial integrity, vessels were left for 30 min and then pre‐contracted with 10 μM methoxamine. This was followed by construction of a cumulative concentration–relaxation curve to VSN16R (10 nM–1 μM). […] Most experiments were performed in matched vessels; effects of blockers or endothelial removal were compared with the control responses obtained in separate vessels of the same rats. All relaxant responses are expressed as percentage relaxation of the tone induced by methoxamine. Values are given as mean ± SEM. Statistical comparisons of concentration‐dependent responses were made by two‐way ANOVA using Prism 4 (GraphPad Software, Inc, San Diego, CA, USA).

BKCa channels = system: BKCa channels; set-up: method as in Denson DD et al. Brain Res 638:61; details: ref Denson DD et al. Brain Res 638:61; read-out: EC50, inhibition of inside-out current of BKCa channels; cited from earlier work
[10] = Stability in pooled mouse liver microsomes; type: in vitro ADME; details: microsomes, 37°C, upper limit 100 min, read-out: t ½ in liver microsomes
Procedure: as §2

CYP450 2A6, sequence (P11509 whole entry): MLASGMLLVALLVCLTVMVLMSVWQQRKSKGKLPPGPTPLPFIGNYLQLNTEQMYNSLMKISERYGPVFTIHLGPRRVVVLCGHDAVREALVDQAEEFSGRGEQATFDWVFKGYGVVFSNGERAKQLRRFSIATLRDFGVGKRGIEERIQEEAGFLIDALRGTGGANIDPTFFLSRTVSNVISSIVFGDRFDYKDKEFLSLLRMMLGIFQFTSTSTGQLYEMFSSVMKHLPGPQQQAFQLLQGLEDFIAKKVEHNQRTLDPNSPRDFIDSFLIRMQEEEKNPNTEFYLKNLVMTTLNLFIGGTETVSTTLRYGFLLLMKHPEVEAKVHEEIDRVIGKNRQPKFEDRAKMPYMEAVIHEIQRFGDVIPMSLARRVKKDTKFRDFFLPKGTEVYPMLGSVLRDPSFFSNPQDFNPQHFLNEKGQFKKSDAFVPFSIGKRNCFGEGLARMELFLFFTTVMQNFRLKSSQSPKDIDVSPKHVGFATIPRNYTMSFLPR
CYP450 2B6, sequence (P20813 whole entry): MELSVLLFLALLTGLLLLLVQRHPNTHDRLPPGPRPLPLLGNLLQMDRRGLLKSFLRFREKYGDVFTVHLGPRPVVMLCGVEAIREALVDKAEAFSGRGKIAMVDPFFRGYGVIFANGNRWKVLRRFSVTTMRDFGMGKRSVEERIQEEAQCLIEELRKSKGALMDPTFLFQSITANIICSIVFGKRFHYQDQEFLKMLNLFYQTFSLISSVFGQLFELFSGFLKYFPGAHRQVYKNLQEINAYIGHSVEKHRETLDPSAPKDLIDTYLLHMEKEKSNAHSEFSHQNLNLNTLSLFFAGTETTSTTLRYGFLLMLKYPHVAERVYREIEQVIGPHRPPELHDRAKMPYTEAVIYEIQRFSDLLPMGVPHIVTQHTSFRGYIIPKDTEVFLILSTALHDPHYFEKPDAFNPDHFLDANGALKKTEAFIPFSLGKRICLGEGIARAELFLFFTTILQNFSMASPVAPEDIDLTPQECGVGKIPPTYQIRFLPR

SMILES: N[C@@H]1C[C@H]1c1ccccc1 (racemic) [Tranylcypromine, reference compound]
- pEC50 (CYP450 2A6): 6.70

SMILES: CC(=O)N1CCN(c2ccc(OCC3COC(Cn4ccnc4)(c4ccc(Cl)cc4Cl)O3)cc2)CC1 (stereo not drawn) [Ketoconazole, reference compound]
- pEC50 (CYP450 2B6): 5.54

SMILES: CC(CO)NC(=O)c1cccc(C=CCCCC(=O)N(C)C)c1 (stereo not drawn) [VSN16, 3‐(6‐(dimethylamino)‐6‐oxohex‐1‐enyl)‐N‐(1‐hydroxypropan‐2‐yl)benzamide]
- pEC50 (mouse vas deferens): ~8.00
- Antagonism of the action by SR141716A (mouse vas deferens; pre‐incubation of 31.6 nM SR141617A): antagonized
- Hypomotility in open field (ABH mice [1]): did not induce
- Hypothermia (ABH mice [2]; 1 mg·kg^−1 i.v., 20 min after administration): did not induce
- Cannabimimetic effects after injection directly into the CNS (ABH mice [2]; intracerebral (i.c.) route): failed to induce cannabimimetic effects
- Inhibition of spasticity [3]: significantly inhibit spasticity
- Visible signs of sedation (mice): failed to induce visible signs of sedation
- Inhibition of spasticity ([4]; 1 mg·kg^−1 i.v., racemate): significantly inhibit spasticity

SMILES: C[C@@H](CO)NC(=O)c1cccc(/C=C\CCCC(=O)N(C)C)c1 [VSN16S]
- pEC50 (mouse vas deferens): 7.43
- pEC50 (rat mesenteric artery [5]): 6.85

SMILES: CNC(=O)CCC/C=C\c1cccc(C(=O)N[C@H](C)CO)c1 [VSN22R, (R,Z)‐N‐(1‐hydroxypropan‐2‐yl)‐3‐(6‐(methylamino)‐6‐oxohex‐1‐en‐1‐yl)benzamide]
- pEC50 (mouse vas deferens): 8.05
- Plasma level of the named species [6]: 106 ± 6.1 ng/mL
- concentration at 1 week [7]: > 100 nM
- Single BKCa channel activity (BKCa channel): facilitated single BKCa channel activity
- Inhibition of spasticity ([4]; 5 mg·kg^−1 i.v.): could inhibit the spasticity

SMILES: CC(=O)Oc1ccc(C(c2ccc(OC(C)=O)cc2)c2ccccn2)cc1 [bisacodyl, reference compound]
- half-life at 1 μM [8]: 2 min

SMILES: CNC1(c2ccccc2Cl)CCCCC1=O (stereo not drawn) [ketamine]
- Effect on VSN16R relaxation of methoxamine-evoked contraction (rat mesenteric artery [9]): can inhibit the mechanism of action of VSN16R
- pEC50 (BKCa channels): ~4.60

SMILES: Cc1ncc2n1-c1ccc(Cl)cc1C(c1ccccc1F)=NC2 [midazolam, reference compound]
- half-life at 1 μM [10]: 17 min

Source: paper PMC5522996, “Big conductance calcium‐activated potassium channel openers control spasticity without sedation” (British Journal of Pharmacology, 2017)
